The assay deals with P388 leukemia ip, CD2F1 mice, survival T/C. Put plainly: NCI In Vivo Anticancer Drug Screen. Data for tumor model P388 Leukemia (intraperitoneal) in CD2F1 (CDF1) mice. Particulars: endpoint: median survival time, higher = longer survival. An outline of the steps: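 Mice carrying the transplanted tumor received test compound or vehicle. Survival was recorded in each group, and the value is the treated-group measurement divided by that of the vehicle-treated control group.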

[1] abbreviates: dose: 60.0 mg/kg/injection, schedule: Q01DX005 (ip), vehicle: saline.
The mark [2] stands for this setting: dose: 12.5 mg/kg/injection, schedule: Q01DX005 (ip), vehicle: saline with Tween-80.
[3] abbreviates: dose: 25.0 mg/kg/injection, schedule: Q01DX005 (ip), vehicle: saline with Tween-80.
Setting [4] is: dose: 25.0 mg/kg/injection, schedule: Q01DX009 (ip), vehicle: saline with Tween-80.
Where [5] appears, read: dose: 50.0 mg/kg/injection, schedule: Q01DX009 (ip), vehicle: saline with Tween-80.
[6] abbreviates: dose: 100.0 mg/kg/injection, schedule: Q01DX009 (ip), vehicle: saline with Tween-80.
[7] abbreviates: dose: 200.0 mg/kg/injection, schedule: Q01DX009 (ip), vehicle: saline with Tween-80.
Where [8] appears, read: dose: 12.5 mg/kg/injection, schedule: Q01DX009 (ip), vehicle: water.
Setting [9] is: dose: 25.0 mg/kg/injection, schedule: Q01DX009 (ip), vehicle: water.
Setting [10] is: dose: 50.0 mg/kg/injection, schedule: Q01DX009 (ip), vehicle: water.
[11] abbreviates: dose: 100.0 mg/kg/injection, schedule: Q01DX009 (ip), vehicle: water.
The mark [12] stands for this setting: dose: 50.0 mg/kg/injection, schedule: Q01DX005 (ip), vehicle: saline with Tween-80.

Structures are written as SMILES. Several values for one entry are separate records, joined by “and”; a condition that tells them apart may be missing. Identical values can stand only once. Inconclusive results and toxic doses are left out.

As for `COc1cc(NCCCNCC(C)(C)C)c2ncccc2c1`, the T/C is 100 % of control (dose: 1.25 mg/kg/injection, schedule: Q01DX009 (ip), vehicle: Klucel (hydroxypropylcellulose) (HPC)); 95 % of control (dose: 2.5 mg/kg/injection, schedule: Q01DX009 (ip), vehicle: Klucel (hydroxypropylcellulose) (HPC)); 94 % of control (dose: 5.0 mg/kg/injection, schedule: Q01DX009 (ip), vehicle: Klucel (hydroxypropylcellulose) (HPC)); 99 % of control (dose: 10.0 mg/kg/injection, schedule: Q01DX009 (ip), vehicle: Klucel (hydroxypropylcellulose) (HPC)).

On to `Nc1nnc(N)n1-n1c(N)nnc1N`, for which the T/C by setting is: (dose: 15.0 mg/kg/injection, schedule: Q01DX005 (ip), vehicle: saline) 104 % of control; (dose: 30.0 mg/kg/injection, schedule: Q01DX005 (ip), vehicle: saline) 99 % of control; under setting [1], 100 % of control and 104 % of control.

Take `CC(C)(C)OC(=O)NC(CCC(=O)O)(Cc1ccccc1)C(=O)NC(CCC(=O)OCc1ccccc1)C(=O)OCc1ccccc1` (stereo not drawn): the T/C reads like this: (dose: 6.25 mg/kg/injection, schedule: Q01DX005 (ip), vehicle: saline with Tween-80) 98 % of control; under setting [2], 96 % of control; under setting [3], 105 % of control.

In the case of `CCCCCCC(/C=C/c1c(Cl)cccc1Cl)=N\O`, the T/C reads like this: under setting [4], 98 % of control; under setting [5], 100 % of control; under setting [6], 99 % of control and 109 % of control; under setting [7], 101 % of control; (dose: 400.0 mg/kg/injection, schedule: Q01DX009 (ip), vehicle: saline with Tween-80) 118 % of control.

In the case of `CCN(CC)CCN(C)C(C)C(=O)Nc1ccccc1Cl` (stereo not drawn), the T/C runs as follows: under setting [1], 105 % of control; (dose: 120.0 mg/kg/injection, schedule: Q01DX005 (ip), vehicle: saline) 100 % of control.

Regarding `NC(Cc1ccccc1)C(=O)OCN1C(=O)C2C3C=CC(C2C1=O)C1C2C(=O)N(COC(=O)C(N)Cc4ccccc4)C(=O)C2C31` (stereo not drawn), the T/C is 103 % of control under setting [8]; 100 % of control and 102 % of control (dose: 25.0 mg/kg/injection, schedule: Q01DX009 (ip), vehicle: saline); 106 % of control and 113 % of control and 103 % of control under setting [9]; 110 % of control (dose: 50.0 mg/kg/injection, schedule: Q01DX009 (ip), vehicle: saline); 109 % of control and 124 % of control under setting [10]; 184 % of control (dose: 100.0 mg/kg/injection, schedule: Q01DX009 (ip), vehicle: saline). The T/C under setting [11] was 189 % of control and 197 % of control; the T/C (dose: 150.0 mg/kg/injection, schedule: Q01DX009 (ip), vehicle: saline) was 192 % of control.

For `Cc1ccc(NC(=O)C#N)cc1`, the T/C by setting is: (dose: 15.0 mg/kg/injection, schedule: Q01DX005 (ip), vehicle: saline with Tween-80) 107 % of control; (dose: 30.0 mg/kg/injection, schedule: Q01DX005 (ip), vehicle: saline with Tween-80) 96 % of control.

Consider `Nc1nnc2cccc(Cl)n12`, for which the T/C was 98 % of control (dose: 100.0 mg/kg/injection, schedule: Q01DX001 (ip), vehicle: Klucel (hydroxypropylcellulose) (HPC)); 96 % of control (dose: 200.0 mg/kg/injection, schedule: Q01DX001 (ip), vehicle: Klucel (hydroxypropylcellulose) (HPC)); 99 % of control (dose: 400.0 mg/kg/injection, schedule: Q01DX001 (ip), vehicle: Klucel (hydroxypropylcellulose) (HPC)).

In the case of `CCOC(=O)/C(=C(\C)N)n1[nH]c(=O)n(-c2ccccc2)c1=O`, the T/C is, setting by setting: (dose: 25.0 mg/kg/injection, schedule: Q01DX005 (ip), vehicle: Klucel (hydroxypropylcellulose) (HPC)) 98 % of control; (dose: 50.0 mg/kg/injection, schedule: Q01DX005 (ip), vehicle: Klucel (hydroxypropylcellulose) (HPC)) 100 % of control and 103 % of control; (dose: 100.0 mg/kg/injection, schedule: Q01DX005 (ip), vehicle: Klucel (hydroxypropylcellulose) (HPC)) 101 % of control and 96 % of control; (dose: 200.0 mg/kg/injection, schedule: Q01DX005 (ip), vehicle: Klucel (hydroxypropylcellulose) (HPC)) 98 % of control and 103 % of control.

As for `C/C(=N\NC(=S)Nc1ccc(C(=O)O)cc1)c1ccccn1`, the T/C runs as follows: under setting [2], 110 % of control; under setting [3], 112 % of control; under setting [12], 109 % of control and 114 % of control.

For the compound `O=c1nc(-c2ccccc2)nc(-c2ccccc2)[nH]1`, the T/C by setting is: (dose: 100.0 mg/kg/injection, schedule: Q04DX002 (ip), vehicle: saline with Tween-80) 93 % of control; (dose: 200.0 mg/kg/injection, schedule: Q04DX002 (ip), vehicle: saline with Tween-80) 89 % of control; (dose: 400.0 mg/kg/injection, schedule: Q04DX002 (ip), vehicle: saline with Tween-80) 108 % of control.

Consider `CC(C)CCSC1=CC(=O)c2ccccc2C1=O`, for which the T/C by setting is: (dose: 3.13 mg/kg/injection, schedule: Q01DX009 (ip), vehicle: saline with Tween-80) 99 % of control; (dose: 6.25 mg/kg/injection, schedule: Q01DX009 (ip), vehicle: saline with Tween-80) 109 % of control; (dose: 12.5 mg/kg/injection, schedule: Q01DX009 (ip), vehicle: saline with Tween-80) 109 % of control; under setting [4], 114 % of control.

As to `O=C1NC(=O)[C@@]2(CC[C@@H](O)C2)c2ccncc21`, the T/C (dose: 1.5 mg/kg/injection, schedule: Q01DX009 (ip), vehicle: DMSO) is 89 % of control; the T/C (dose: 3.0 mg/kg/injection, schedule: Q01DX009 (ip), vehicle: DMSO) is 93 % of control; the T/C (dose: 6.0 mg/kg/injection, schedule: Q01DX009 (ip), vehicle: DMSO) was 101 % of control; the T/C (dose: 12.0 mg/kg/injection, schedule: Q01DX009 (ip), vehicle: DMSO) was 95 % of control; the T/C (dose: 25.0 mg/kg/injection, schedule: Q01DX005 (ip), vehicle: DMSO) is 91 % of control; the T/C (dose: 50.0 mg/kg/injection, schedule: Q01DX005 (ip), vehicle: DMSO) was 96 % of control. For the same compound, the T/C reads like this: (dose: 100.0 mg/kg/injection, schedule: Q01DX005 (ip), vehicle: DMSO) 93 % of control; (dose: 200.0 mg/kg/injection, schedule: Q01DX005 (ip), vehicle: DMSO) 92 % of control.

Take `COc1ccc(C(C)c2cc(N=O)c(OC)cc2O)cc1` (stereo not drawn): the T/C under setting [2] was 91 % of control; the T/C under setting [3] was 94 % of control; the T/C under setting [12] is 92 % of control and 96 % of control.

Consider `CCSC(=S)S(=O)(=O)c1ccc(C)cc1`, for which the T/C is 120 % of control (dose: 12.5 mg/kg/injection, schedule: Q01DX009 (ip), vehicle: Klucel (hydroxypropylcellulose) (HPC)); 105 % of control (dose: 25.0 mg/kg/injection, schedule: Q01DX009 (ip), vehicle: Klucel (hydroxypropylcellulose) (HPC)); 115 % of control and 123 % of control (dose: 50.0 mg/kg/injection, schedule: Q01DX009 (ip), vehicle: Klucel (hydroxypropylcellulose) (HPC)).

For `CC(=O)NC(Cc1c[nH]c2ccccc12)C(C)=O` (stereo not drawn), the T/C was 89 % of control under setting [4], 91 % of control under setting [5], 106 % of control under setting [6] and 97 % of control under setting [7].

Turning to `N#Cc1c(-c2ccc(Cl)cc2)c(-c2ccc(Cl)cc2)nn(CCOC(=O)CCC(=O)OCCn2nc(-c3ccc(Cl)cc3)c(-c3ccc(Cl)cc3)c(C#N)c2=O)c1=O`, the T/C reads like this: (dose: 25.0 mg/kg/injection, schedule: Q04DX002 (ip), vehicle: distilled water + Tween-80) 95 % of control; (dose: 50.0 mg/kg/injection, schedule: Q04DX002 (ip), vehicle: distilled water + Tween-80) 89 % of control; (dose: 100.0 mg/kg/injection, schedule: Q04DX002 (ip), vehicle: distilled water + Tween-80) 91 % of control.

On to `Cc1cc(Cl)nc2ccc([N+](=O)[O-])cc12`, for which the T/C (dose: 100.0 mg/kg/injection, schedule: Q04DX003 (ip), vehicle: saline) is 92 % of control; the T/C (dose: 200.0 mg/kg/injection, schedule: Q04DX003 (ip), vehicle: saline) was 94 % of control; the T/C (dose: 400.0 mg/kg/injection, schedule: Q04DX003 (ip), vehicle: saline) was 91 % of control.

Consider `O=C1NC(CN2CCCC(O)C2)C(=O)NC1CN1CCCC(O)C1` (stereo not drawn), for which the T/C by setting is: under setting [8], 110 % of control and 95 % of control; under setting [9], 96 % of control and 90 % of control; under setting [10], 96 % of control and 110 % of control; under setting [11], 122 % of control and 114 % of control; (dose: 200.0 mg/kg/injection, schedule: Q01DX009 (ip), vehicle: water) 116 % of control.

(Values after PubChem BioAssay AID330 (DTP/NCI, 2004).)
